From ChEMBL document CHEMBL2434896, “Carbonic anhydrase inhibitors. Synthesis of heterocyclic 4-substituted pyridine-3-sulfonamide derivatives and their inhibition of the human cytosolic isozymes I and II and transmembrane tumor-associated isozymes IX and XII” (Eur J Med Chem, 2013)
Activity calls are given as the source filed them. The calls are words filed in the database; no cut-off is given here.

Legend:
Malme-3M = experiment: Growth inhibition of human MALME-3M cells at 10 uM after 48 hrs by sulforhodamine B assay; type: functional; conditions: read-out: GI
LOX IMVI = experiment: Growth inhibition of human LOXIMVI cells at 10 uM after 48 hrs by sulforhodamine B assay; type: functional
SNB-75 = experiment: Growth inhibition of human SNB75 cells at 10 uM after 48 hrs by sulforhodamine B assay; type: functional
SF-539 = experiment: Growth inhibition of human SF539 cells at 10 uM after 48 hrs by sulforhodamine B assay; type: functional; conditions: SF-539, 48 h, read-out: GI
SF-268 = experiment: Growth inhibition of human SF268 cells at 10 uM after 48 hrs by sulforhodamine B assay; type: functional
SW-620 = experiment: Growth inhibition of human SW620 cells at 10 uM after 48 hrs by sulforhodamine B assay; type: functional
HT-29 = experiment: Growth inhibition of human HT-29 cells at 10 uM after 48 hrs by sulforhodamine B assay; type: functional; conditions: HT-29, 48 h, read-out: GI
HCT-15 = experiment: Growth inhibition of human HCT15 cells at 10 uM after 48 hrs by sulforhodamine B assay; type: functional; conditions: HCT-15, 48 h, read-out: GI
HCT-116 = experiment: Growth inhibition of human HCT116 cells at 10 uM after 48 hrs by sulforhodamine B assay; type: functional; conditions: HCT-116, 48 h, read-out: GI
HCC 2998 = experiment: Growth inhibition of human HCC2998 cells at 10 uM after 48 hrs by sulforhodamine B assay; type: functional
COLO 205 = experiment: Growth inhibition of human COLO205 cells at 10 uM after 48 hrs by sulforhodamine B assay; type: functional
NCI-H522 = experiment: Growth inhibition of human NCI-H522 cells at 10 uM after 48 hrs by sulforhodamine B assay; type: functional; conditions: NCI-H522, 48 h, read-out: GI
NCI-H460 = experiment: Growth inhibition of human NCI-H460 cells at 10 uM after 48 hrs by sulforhodamine B assay; type: functional
NCI-H322M = experiment: Growth inhibition of human NCI-H322M cells at 10 uM after 48 hrs by sulforhodamine B assay; type: functional
NCI-H23 = experiment: Growth inhibition of human NCI-H23 cells at 10 uM after 48 hrs by sulforhodamine B assay; type: functional
HOP-62 = experiment: Growth inhibition of human HOP62 cells at 10 uM after 48 hrs by sulforhodamine B assay; type: functional
A549 = experiment: Growth inhibition of human A549/ATCC cells at 10 uM after 48 hrs by sulforhodamine B assay; type: functional; conditions: A549, 48 h, read-out: GI
SR = experiment: Growth inhibition of human SR cells at 10 uM after 48 hrs by sulforhodamine B assay; type: functional; conditions: read-out: GI
RPMI-8226 = experiment: Growth inhibition of human RPMI8226 cells at 10 uM after 48 hrs by sulforhodamine B assay; type: functional; conditions: RPMI-8226, 48 h, read-out: GI
MOLT-4 = experiment: Growth inhibition of human MOLT4 cells at 10 uM after 48 hrs by sulforhodamine B assay; type: functional; conditions: MOLT-4, 48 h, read-out: GI
HL-60(TB) = experiment: Growth inhibition of human HL-60(TB) cells at 10 uM after 48 hrs by sulforhodamine B assay; type: functional; conditions: HL-60, 48 h, read-out: GI
CCRF-CEM = experiment: Growth inhibition of human CCRF-CEM cells at 10 uM after 48 hrs by sulforhodamine B assay; type: functional; conditions: read-out: GI
Carbonic anhydrase 9 = Carbonic anhydrase 9 (Homo sapiens, UniProt Q16790); experiment: Inhibition of human carbonic anhydrase 9 after 15 mins by stopped flow CO2 hydration assay
MDA-MB-468 = experiment: Growth inhibition of human MDA-MB-468 cells at 10 uM after 48 hrs by sulforhodamine B assay; type: functional; conditions: MDA-MB-468, 48 h, read-out: GI
Hs-578T = experiment: Growth inhibition of human Hs 578T cells at 10 uM after 48 hrs by sulforhodamine B assay; type: functional
MDA-MB-231 = experiment: Growth inhibition of human MDA-MB-231 cells at 10 uM after 48 hrs by sulforhodamine B assay; type: functional
MCF7 = experiment: Growth inhibition of human MCF7 cells at 10 uM after 48 hrs by sulforhodamine B assay; type: functional
DU-145 = experiment: Growth inhibition of human DU145 cells at 10 uM after 48 hrs by sulforhodamine B assay; type: functional
PC-3 = experiment: Growth inhibition of human PC3 cells at 10 uM after 48 hrs by sulforhodamine B assay; type: functional; conditions: PC-3, 48 h, read-out: GI
UO-31 = experiment: Growth inhibition of human UO31 cells at 10 uM after 48 hrs by sulforhodamine B assay; type: functional; conditions: UO-31, 48 h, read-out: GI
TK-10 = experiment: Growth inhibition of human TK10 cells at 10 uM after 48 hrs by sulforhodamine B assay; type: functional
SN12C = experiment: Growth inhibition of human SN12C cells at 10 uM after 48 hrs by sulforhodamine B assay; type: functional; conditions: read-out: GI
RXF 393 = experiment: Growth inhibition of human RXF393 cells at 10 uM after 48 hrs by sulforhodamine B assay; type: functional
CAKI-1 = experiment: Growth inhibition of human CAKI-1 cells at 10 uM after 48 hrs by sulforhodamine B assay; type: functional; conditions: CAKI-1, 48 h, read-out: GI
ACHN = experiment: Growth inhibition of human ACHN cells at 10 uM after 48 hrs by sulforhodamine B assay; type: functional
A498 = experiment: Growth inhibition of human A498 cells at 10 uM after 48 hrs by sulforhodamine B assay; type: functional; conditions: A498, 48 h, read-out: GI
786-0 = experiment: Growth inhibition of human 786-0 cells at 10 uM after 48 hrs by sulforhodamine B assay; type: functional
OVCAR-8 = experiment: Growth inhibition of human OVCAR8 cells at 10 uM after 48 hrs by sulforhodamine B assay; type: functional; conditions: OVCAR-8, 48 h, read-out: GI
OVCAR-5 = experiment: Growth inhibition of human OVCAR5 cells at 10 uM after 48 hrs by sulforhodamine B assay; type: functional; conditions: OVCAR-5, 48 h, read-out: GI
OVCAR-3 = experiment: Growth inhibition of human OVCAR3 cells at 10 uM after 48 hrs by sulforhodamine B assay; type: functional
IGROV-1 = experiment: Growth inhibition of human IGROV1 cells at 10 uM after 48 hrs by sulforhodamine B assay; type: functional; conditions: IGROV-1, 48 h, read-out: GI
UACC-62 = experiment: Growth inhibition of human UACC62 cells at 10 uM after 48 hrs by sulforhodamine B assay; type: functional; conditions: UACC-62, 48 h, read-out: GI
UACC-257 = experiment: Growth inhibition of human UACC257 cells at 10 uM after 48 hrs by sulforhodamine B assay; type: functional
SK-MEL-28 = experiment: Growth inhibition of human SK-MEL-28 cells at 10 uM after 48 hrs by sulforhodamine B assay; type: functional, cell-based
SK-MEL-2 = experiment: Growth inhibition of human SK-MEL-2 cells at 10 uM after 48 hrs by sulforhodamine B assay; type: functional
M14 = experiment: Growth inhibition of human M14 cells at 10 uM after 48 hrs by sulforhodamine B assay; type: functional

For NS(=O)(=O)c1cnccc1N1CCC(Cc2ccccc2)CC1, the inhibition of growth at 10 µM (Malme-3M) was 4%, the “growth inhibition (GI)” value (LOX IMVI) was “inactive” and the “growth inhibition (GI)” value (SNB-75) was “inactive”. For the same compound, the inhibition of growth at 10 µM (SF-539) was 4%, the “growth inhibition (GI)” value (SF-268) was “inactive” and the “growth inhibition (GI)” value (SW-620) was “inactive”. For the same compound, the inhibition of growth at 10 µM (HT-29) was 2%, the inhibition of growth at 10 µM (HCT-15) was 2% and the inhibition of growth at 10 µM (HCT-116) was 10%. For the same compound, the “growth inhibition (GI)” value (HCC 2998) was “inactive”, the “growth inhibition (GI)” value (COLO 205) was “inactive” and the inhibition of growth at 10 µM (NCI-H522) was 12%. The “growth inhibition (GI)” value (NCI-H460) was “inactive”, the “growth inhibition (GI)” value (NCI-H322M) was “inactive” and the “growth inhibition (GI)” value (NCI-H23) was “inactive”. The “growth inhibition (GI)” value (HOP-62) was “inactive”, the inhibition of growth at 10 µM (A549) was 1% and the inhibition of growth at 10 µM (SR) was 18%. The inhibition of growth at 10 µM (RPMI-8226) was 11%, the inhibition of growth at 10 µM (MOLT-4) was 9% and the inhibition of growth at 10 µM (HL-60(TB)) was 3%. The inhibition of growth at 10 µM (CCRF-CEM) was 3%, the Ki (Carbonic anhydrase 9) was 136 nM and the inhibition of growth at 10 µM (MDA-MB-468) was 8%. The “growth inhibition (GI)” value (Hs-578T) was “inactive”, the “growth inhibition (GI)” value (MDA-MB-231) was “inactive” and the “growth inhibition (GI)” value (MCF7) was “inactive”. The “growth inhibition (GI)” value (DU-145) was “inactive”, the inhibition of growth at 10 µM (PC-3) was 2% and the inhibition of growth at 10 µM (UO-31) was 21%. For the same compound, the “growth inhibition (GI)” value (TK-10) was “inactive”, the inhibition of growth at 10 µM (SN12C) was 1% and the “growth inhibition (GI)” value (RXF 393) was “inactive”. The inhibition of growth at 10 µM (CAKI-1) was 3%, the “growth inhibition (GI)” value (ACHN) was “inactive” and the inhibition of growth at 10 µM (A498) was 8%. The “growth inhibition (GI)” value (786-0) was “inactive”, the inhibition of growth at 10 µM (OVCAR-8) was 1% and the inhibition of growth at 10 µM (OVCAR-5) was 1%. The “growth inhibition (GI)” value (OVCAR-3) was “inactive”, the inhibition of growth at 10 µM (IGROV-1) was 3% and the inhibition of growth at 10 µM (UACC-62) was 3%. The “growth inhibition (GI)” value (UACC-257) was “inactive”, the “growth inhibition (GI)” value (SK-MEL-28) was “inactive” and the “growth inhibition (GI)” value (SK-MEL-2) was “inactive”. For the same compound, the “growth inhibition (GI)” value (M14) was “inactive”.
